This is an account of results in article PMC10848157, “Assessing NH300094, a novel dopamine and serotonin receptor modulator with cognitive enhancement property for treating schizophrenia” (Frontiers in Pharmacology, 2024).

Structures can show the parent of a compound that is named as a salt.

In test [1] the target is T1, 5-HT2C receptor (Homo sapiens, UniProt P28335).
T1 sequence (P28335 33-458): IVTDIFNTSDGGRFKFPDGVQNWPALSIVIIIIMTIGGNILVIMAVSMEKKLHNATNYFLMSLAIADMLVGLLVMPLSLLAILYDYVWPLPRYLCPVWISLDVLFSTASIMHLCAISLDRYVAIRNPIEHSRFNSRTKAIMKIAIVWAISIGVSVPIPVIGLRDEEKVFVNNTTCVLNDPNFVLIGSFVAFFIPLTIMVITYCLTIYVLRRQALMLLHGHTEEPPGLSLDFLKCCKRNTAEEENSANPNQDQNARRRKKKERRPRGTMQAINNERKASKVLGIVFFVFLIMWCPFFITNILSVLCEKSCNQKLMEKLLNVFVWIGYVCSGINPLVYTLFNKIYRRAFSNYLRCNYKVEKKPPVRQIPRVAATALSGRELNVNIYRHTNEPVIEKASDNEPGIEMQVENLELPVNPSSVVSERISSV
Briefly: 5-HT2C receptor functional assay (calcium flow, FLIPR). The settings on record: HEK293/5-HT2C cells, read-out: 5HT2cR, IC50. Type of test: cell-based.

For test [2], the target named is 5-HT1B receptor (Homo sapiens, UniProt P28222). Briefly: 5-HT1B receptor functional assay (cAMP assay, inverse agonist). In kind it is cell-based. The settings on record: inverse agonist activity, CHO-K1/5-HT1B cells, read-out: 5HT1BR, EC50.
Test [3] deals with male ICR mice. The experiment in a line: MK-801-induced hyperactivity in mice. In kind it is in vivo. The settings on record: single oral dose. The protocol:
Immediately after injection with either saline or MK-801 (0.3 mg/kg, i.p.), the mice were placed into the test chambers (29 cm × 29 cm × 30 cm) for 60 min of locomotion recording using a tracking and computerized analysis system (TopScan Version 3.00, Clever Sys Inc., Leesburg, VA).

In test [4] the test system is male Wistar rats. The experiment in a line: Conditioned avoidance response test in rats. The settings on record: Rattus norvegicus, single oral dose, read-out: ED50, inhibition of conditioned avoidance response. In kind it is in vivo. From the text:
Shuttle-box Avoidance Test Video Analysis System (DigBehv-SBG, Shanghai Jiliang Software Technology Co. Ltd.) were used to assess the rats conditioned avoidance response.
Phase I: The rats responded to the conditioned stimulus (auditory and visual) by training with foot shock reinforcement. Briefly, rats were placed into the CAR shuttle boxes for a 5-min habituation followed by 30 trials presented on a 20-s variable interval (20–30 s) stimulus. Each rats were subjected to a conditioned stimulus which consisted of 10s presentation of light and white noise, and then followed by a scrambled 1.5 mA foot shock for 10 s. […] Rats with avoidance rates greater than 70% for 3 consecutive days were included in this study post-training.
Phase II: The qualified rats were randomly divided into 7 groups. […] The procedure in the testing phase was the same as the Phase I described. The number of avoidances, escapes, and escape failures were recorded.

The subject of test [5] is male ICR mice. Briefly: DOI-induced head twitch in mice.
In test [6] the test system is male ICR mice. Briefly: Forced swimming test in mice. Type of test: in vivo. Conditions: single oral dose; NH300094 0.03 mg/kg; risperidone 0.01, 0.03 and 0.1 mg/kg. The protocol: Each mouse was required to swim in an open cylindrical container (height of 25 cm, diameter of 10 cm) after intragastric administration of compounds 1 h. The container contained 1.2 L of water with temperature maintained at 24°C ± 1°C. The test used a computerized analysis and tracking system (Clever Sys Inc., Leesburg, VA) to recorded the duration of immobility (last 4 min of a total time of 6 min) about the testing mice.

The subject of test [7] is male ICR mice. Briefly: APO-induced climbing in mice.
For test [8], the system named is male ICR mice. Briefly: Novel object recognition in scopolamine hydrobromide-treated mice. Type of test: in vivo. Conditions: NOR; NH300094 0.01–0.16 mg/kg p.o.; risperidone 0.04, 0.08, 0.16 mg/kg p.o.; rivastigmine 0.3 and 1 mg/kg i.p. The protocol:
The procedure was modified according to Bevins and Besheer ([Bevins and Besheer, 2006]). […] The tests were conducted in a 50 cm × 35 cm × 20 cm chamber and the mice behavior was recording using a Hikvision video recording system (H.265, Hikvision Digtial Technology Co., Ltd.). All mice were allowed to freely explore the chamber environment for 10 min, and there were no objects placed in the chamber during acclimatization period. […] Rivastigmine hydrogen tartrate group (0.1, 0.3 and 1 mg/kg, i.p.) were dosed simultaneously with scopolamine hydrobromide (3 mg/kg, i.p.). Training was conducted 30 min post scopolamine hydrobromide administration by placing a single mouse into a chamber for 10 min with two exactly same objects positioned in the center of chamber. (The distance between the two objects was more than 20 cm). […]
The experimental video was analyzed to record the time of mice exploring the new and old objects, respectively, and the differentiation index (DI) was calculated as follows: DI = new object exploration time/(new object exploration time + old object exploration time), which was used as the main evaluation index of discrimination ability. […] If the total exploration time of the new and old objects was less than 20 s, the total 10 min of video would be analyzed. […] The movement of circling without sniffing or sitting on the object was not recorded as exploration behavior.

The mark [9] stands for this setting: single oral dose, male ICR mice.

Chain of 5-HT1B receptor (P28222 whole entry): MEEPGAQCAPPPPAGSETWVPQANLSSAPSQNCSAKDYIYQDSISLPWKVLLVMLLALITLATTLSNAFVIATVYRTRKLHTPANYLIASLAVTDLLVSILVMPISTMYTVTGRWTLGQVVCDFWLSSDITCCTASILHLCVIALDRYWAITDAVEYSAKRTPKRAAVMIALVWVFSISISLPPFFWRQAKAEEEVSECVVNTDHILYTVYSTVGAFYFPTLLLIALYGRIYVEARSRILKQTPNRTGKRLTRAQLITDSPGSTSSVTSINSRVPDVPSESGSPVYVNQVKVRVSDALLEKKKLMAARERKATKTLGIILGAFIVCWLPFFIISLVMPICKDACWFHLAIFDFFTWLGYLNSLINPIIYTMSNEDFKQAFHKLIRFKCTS

With `CSc1ccc2c(c1)C(N1CCN(C)CC1)Cc1ccccc1S2` (centres unmarked) [Methiothepin, reference compound], the IC50 (in general, the concentration that gives 50% inhibition) in test [1] amounted to 0.0397 µM. Moreover, the EC50 (as a rule, the concentration at which the effect is half-maximal) in test [2] amounted to 0.0223 ± 0.00969 µM.

In the case of `Cc1nc2n(c(=O)c1CCN1CCC(c3noc4cc(F)ccc34)CC1)CCCC2` [Risperidone, risperidone, reference compound], the ED50 in test [3] (Mus musculus, MK-801 0.3 mg/kg i.p., read-out: ED50, inhibition of MK-801-induced hyperactivity) is around 0.08 mg/kg; in test [4], around 0.7 mg/kg; in test [5] (Mus musculus, po, read-out: ED50, inhibition of DOI-induced head twitch, single oral dose, male ICR mice, DOI 1 mg/kg) it was around 0.002 mg/kg; in test [7] (Mus musculus, read-out: ED50, inhibition of APO-induced climbing), around 0.1 mg/kg. The “Minimum effective dose (MED), MK-801-induced hyperactivity” value in test [3] is given as 0.1 mg/kg. In test [5] (setting [9]), the “MED, DOI-induced head twitch” value was determined as 0.001 mg/kg. Moreover, in test [6], the “effect on immobility time in the FST” value is reported as “did not affect the immobility time”. For the same compound, the “MED, APO-induced climbing” value in test [7] (setting [9]) came out at 0.1 mg/kg.

For the compound `CCN(C)C(=O)Oc1cccc([C@H](C)N(C)C)c1` [rivastigmine bitartrate, rivastigmine hydrogen tartrate, reference compound], the “effect on differentiation index (DI) of scopolamine hydrobromide-treated mice” value in test [8] is “significantly enhanced learning and memory ability”.
